Tests used:
Settings in all cases: at 10 µM
[1] = biological target: T1, Mitogen-activated protein kinase kinase kinase 12 (Homo sapiens) (UniProt Q12852); test: Selectivity interaction (KinomeScan (DiscoverX)) EUB0000595a MAP3K12
T1 sequence (whole entry): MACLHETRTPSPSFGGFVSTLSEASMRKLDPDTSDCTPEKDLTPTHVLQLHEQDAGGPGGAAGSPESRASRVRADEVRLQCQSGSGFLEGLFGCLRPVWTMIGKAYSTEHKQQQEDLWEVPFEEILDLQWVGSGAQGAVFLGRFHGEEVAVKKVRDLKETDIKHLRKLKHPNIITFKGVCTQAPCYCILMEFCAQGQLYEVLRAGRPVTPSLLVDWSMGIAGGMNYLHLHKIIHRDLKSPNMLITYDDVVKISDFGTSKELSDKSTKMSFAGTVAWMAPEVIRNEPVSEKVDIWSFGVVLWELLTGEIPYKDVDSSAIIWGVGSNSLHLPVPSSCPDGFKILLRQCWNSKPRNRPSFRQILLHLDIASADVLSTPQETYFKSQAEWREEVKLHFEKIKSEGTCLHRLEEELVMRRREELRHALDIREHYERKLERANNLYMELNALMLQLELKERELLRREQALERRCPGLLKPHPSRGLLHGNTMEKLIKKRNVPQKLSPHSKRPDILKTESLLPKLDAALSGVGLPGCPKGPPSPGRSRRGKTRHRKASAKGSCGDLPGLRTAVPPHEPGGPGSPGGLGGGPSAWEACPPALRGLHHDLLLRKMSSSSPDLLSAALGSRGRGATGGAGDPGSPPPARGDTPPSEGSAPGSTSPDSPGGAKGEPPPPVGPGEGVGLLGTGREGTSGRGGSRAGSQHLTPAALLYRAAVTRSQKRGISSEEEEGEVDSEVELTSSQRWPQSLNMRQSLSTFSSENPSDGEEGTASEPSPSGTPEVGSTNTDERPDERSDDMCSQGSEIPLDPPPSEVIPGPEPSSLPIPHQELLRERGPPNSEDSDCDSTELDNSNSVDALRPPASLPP

[2] = biological target: T2, Cyclin-dependent kinase-like 5 (Homo sapiens) (UniProt O76039); test: Selectivity interaction (KinomeScan (DiscoverX)) EUB0000229b CDKL5
T2 sequence (whole entry): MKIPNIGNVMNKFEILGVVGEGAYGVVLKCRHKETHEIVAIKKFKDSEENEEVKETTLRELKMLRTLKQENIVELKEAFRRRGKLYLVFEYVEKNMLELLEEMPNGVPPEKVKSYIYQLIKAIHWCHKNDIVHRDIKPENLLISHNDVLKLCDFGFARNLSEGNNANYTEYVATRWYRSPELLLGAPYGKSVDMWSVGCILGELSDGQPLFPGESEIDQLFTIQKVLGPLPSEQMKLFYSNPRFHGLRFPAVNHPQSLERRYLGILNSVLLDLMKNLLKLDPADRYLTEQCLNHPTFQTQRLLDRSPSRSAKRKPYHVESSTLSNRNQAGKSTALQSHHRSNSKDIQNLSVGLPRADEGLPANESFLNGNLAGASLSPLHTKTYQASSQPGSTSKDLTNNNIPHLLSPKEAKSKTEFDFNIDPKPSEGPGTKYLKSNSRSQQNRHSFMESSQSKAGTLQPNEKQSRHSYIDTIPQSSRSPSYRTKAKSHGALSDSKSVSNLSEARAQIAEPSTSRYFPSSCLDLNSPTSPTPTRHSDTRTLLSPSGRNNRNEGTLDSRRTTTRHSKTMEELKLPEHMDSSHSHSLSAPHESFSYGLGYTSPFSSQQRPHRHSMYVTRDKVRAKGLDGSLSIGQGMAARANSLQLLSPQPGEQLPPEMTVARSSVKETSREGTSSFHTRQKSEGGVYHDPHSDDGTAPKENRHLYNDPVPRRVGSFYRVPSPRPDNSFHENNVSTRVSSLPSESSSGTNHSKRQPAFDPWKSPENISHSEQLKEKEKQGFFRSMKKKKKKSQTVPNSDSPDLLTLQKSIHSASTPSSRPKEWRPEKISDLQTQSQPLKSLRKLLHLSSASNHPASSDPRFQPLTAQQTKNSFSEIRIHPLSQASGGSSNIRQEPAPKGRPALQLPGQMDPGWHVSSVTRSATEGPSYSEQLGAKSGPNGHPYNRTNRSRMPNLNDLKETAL

[3] = biological target: T3, Myosin light chain kinase family member 4 (Homo sapiens) (UniProt Q86YV6); test: Selectivity interaction (KinomeScan (DiscoverX)) EUB0000092b MYLK4
T3 sequence (whole entry): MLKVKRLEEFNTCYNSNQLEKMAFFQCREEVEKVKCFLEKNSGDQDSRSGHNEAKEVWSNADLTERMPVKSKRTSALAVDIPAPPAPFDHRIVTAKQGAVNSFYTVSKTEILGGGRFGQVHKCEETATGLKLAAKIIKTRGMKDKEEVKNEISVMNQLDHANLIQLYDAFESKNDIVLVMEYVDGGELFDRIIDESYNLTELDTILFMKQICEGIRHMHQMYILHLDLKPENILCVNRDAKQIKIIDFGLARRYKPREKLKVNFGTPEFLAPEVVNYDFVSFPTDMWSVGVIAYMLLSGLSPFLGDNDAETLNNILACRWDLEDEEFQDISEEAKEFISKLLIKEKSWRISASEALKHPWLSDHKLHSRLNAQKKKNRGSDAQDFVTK

[4] = biological target: T4, Protein kinase C iota type (Homo sapiens) (UniProt P41743); test: Selectivity interaction (KinomeScan (DiscoverX)) EUB0000655a PRKCI
T4 sequence (whole entry): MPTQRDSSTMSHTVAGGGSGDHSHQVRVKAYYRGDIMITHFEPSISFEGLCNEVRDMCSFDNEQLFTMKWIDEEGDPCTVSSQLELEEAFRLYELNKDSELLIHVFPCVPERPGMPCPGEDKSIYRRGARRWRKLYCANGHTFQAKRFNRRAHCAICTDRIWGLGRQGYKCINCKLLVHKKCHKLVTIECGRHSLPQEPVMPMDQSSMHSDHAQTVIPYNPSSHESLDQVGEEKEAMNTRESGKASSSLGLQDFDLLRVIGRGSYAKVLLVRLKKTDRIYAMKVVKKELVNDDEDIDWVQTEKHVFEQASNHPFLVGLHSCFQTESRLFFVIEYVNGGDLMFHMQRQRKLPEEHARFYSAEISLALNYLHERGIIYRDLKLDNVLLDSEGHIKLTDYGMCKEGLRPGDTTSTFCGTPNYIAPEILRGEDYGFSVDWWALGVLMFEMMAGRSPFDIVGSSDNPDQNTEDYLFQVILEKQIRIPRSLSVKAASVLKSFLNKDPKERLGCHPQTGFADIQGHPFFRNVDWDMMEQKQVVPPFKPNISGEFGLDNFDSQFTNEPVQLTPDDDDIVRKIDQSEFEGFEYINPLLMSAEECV

[5] = biological target: Calcium/calmodulin-dependent protein kinase kinase 2 (Homo sapiens) (UniProt Q96RR4); test: Selectivity interaction (KinomeScan (DiscoverX)) EUB0000655a CAMKK2
Chain of Calcium/calmodulin-dependent protein kinase kinase 2 (Homo sapiens) (Q96RR4 2-588 limits assumed): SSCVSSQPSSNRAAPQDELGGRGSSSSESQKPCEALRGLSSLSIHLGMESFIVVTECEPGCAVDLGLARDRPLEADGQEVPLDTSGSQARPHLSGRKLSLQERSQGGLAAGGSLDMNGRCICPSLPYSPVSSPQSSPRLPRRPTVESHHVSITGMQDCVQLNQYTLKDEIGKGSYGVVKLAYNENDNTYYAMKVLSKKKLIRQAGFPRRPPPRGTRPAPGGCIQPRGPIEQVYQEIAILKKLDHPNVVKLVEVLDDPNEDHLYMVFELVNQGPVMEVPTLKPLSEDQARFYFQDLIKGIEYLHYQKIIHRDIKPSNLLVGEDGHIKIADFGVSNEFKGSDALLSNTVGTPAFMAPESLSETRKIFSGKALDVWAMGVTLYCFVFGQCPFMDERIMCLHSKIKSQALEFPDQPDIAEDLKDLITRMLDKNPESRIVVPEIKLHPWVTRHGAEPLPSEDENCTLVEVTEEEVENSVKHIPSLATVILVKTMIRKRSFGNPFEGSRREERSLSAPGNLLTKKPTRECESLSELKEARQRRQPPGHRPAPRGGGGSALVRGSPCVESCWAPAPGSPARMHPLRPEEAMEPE

[6] = test system: Epidermal growth factor receptor (Homo sapiens), P00533 [UNDEFINED MUTATION]; test: Selectivity interaction (KinomeScan (DiscoverX)) EUB0000607a EGFR
Chain of Epidermal growth factor receptor (Homo sapiens), P00533 [UNDEFINED MUTATION] (P00533 whole entry, looked up, change not shown): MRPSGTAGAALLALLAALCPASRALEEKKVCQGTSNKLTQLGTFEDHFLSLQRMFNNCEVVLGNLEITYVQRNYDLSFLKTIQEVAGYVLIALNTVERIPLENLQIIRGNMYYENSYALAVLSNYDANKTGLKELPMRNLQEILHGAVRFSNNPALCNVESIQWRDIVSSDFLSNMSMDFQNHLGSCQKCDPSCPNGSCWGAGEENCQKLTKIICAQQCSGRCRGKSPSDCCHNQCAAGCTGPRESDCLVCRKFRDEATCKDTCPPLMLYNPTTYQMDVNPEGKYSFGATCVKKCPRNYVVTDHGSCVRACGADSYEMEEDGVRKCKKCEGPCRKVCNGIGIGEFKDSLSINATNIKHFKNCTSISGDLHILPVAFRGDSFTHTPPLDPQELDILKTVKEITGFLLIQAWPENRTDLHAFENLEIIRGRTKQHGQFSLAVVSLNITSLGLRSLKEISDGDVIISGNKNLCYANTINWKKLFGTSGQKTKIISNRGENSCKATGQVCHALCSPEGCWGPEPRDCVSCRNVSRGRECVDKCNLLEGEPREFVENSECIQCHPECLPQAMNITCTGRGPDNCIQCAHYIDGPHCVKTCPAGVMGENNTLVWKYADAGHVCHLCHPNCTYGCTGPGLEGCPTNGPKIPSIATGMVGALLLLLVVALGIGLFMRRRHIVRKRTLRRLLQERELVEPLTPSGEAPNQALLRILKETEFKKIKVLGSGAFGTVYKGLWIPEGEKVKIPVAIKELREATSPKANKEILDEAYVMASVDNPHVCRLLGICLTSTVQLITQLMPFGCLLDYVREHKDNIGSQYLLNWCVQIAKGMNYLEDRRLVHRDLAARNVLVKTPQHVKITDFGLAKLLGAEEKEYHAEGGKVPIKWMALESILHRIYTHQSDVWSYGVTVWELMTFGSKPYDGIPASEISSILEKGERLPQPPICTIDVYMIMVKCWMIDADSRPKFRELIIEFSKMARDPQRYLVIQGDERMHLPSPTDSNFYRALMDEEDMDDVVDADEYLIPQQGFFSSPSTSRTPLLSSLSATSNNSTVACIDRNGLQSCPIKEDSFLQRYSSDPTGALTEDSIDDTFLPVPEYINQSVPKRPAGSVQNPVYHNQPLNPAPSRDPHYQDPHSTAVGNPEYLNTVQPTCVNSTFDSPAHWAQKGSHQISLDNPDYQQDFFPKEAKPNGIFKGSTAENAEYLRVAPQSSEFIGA

For `COCC(=O)NC/C=C/c1ccc2ncnc(Nc3ccc(Oc4ccc(C)nc4)c(C)c3)c2c1` [CP-724714], the % of control [1] was 92%.

Molecule `COc1cc(N(C)c2ccnc3ccc(C(F)(F)F)cc23)cc(OC)c1OC` has a % binding [2] of 86%.

Work on `CCC(=O)N1CCN(c2ccc(-n3c(=O)ccc4cnc5ccc(-c6cnc7ccccc7c6)cc5c43)cc2C(F)(F)F)CC1` yielded a % of control [3] of 83%.

`CN(C)CCOc1ccc(-c2nc(-c3ccncc3)c(-c3ccc4c(c3)CC/C4=N\O)[nH]2)cc1` gave a % of control [4] of 80% and a % of control [5] of 88%.

`CNC(=O)Nc1ccc(-c2nc(N3CC4CCC(C3)O4)c3cnn(C4CCC5(CC4)OCCO5)c3n2)cc1` was tested, and the % of control [6] was 50%.

From ChEMBL document CHEMBL5465560, “Selectivity Literature for EUbOPEN Chemogenomic Library” (2024)
